Where no end group is shown, it is not given here.
Legend:
BMDCs = test: Antigen-presentation assay using the B3Z reporter system, BMDCs; format: cell-based, mouse; details: for antigen-presentation activity of cholic acid-NLS peptide conjugates (B3Z response) / antigen cross-presentation of OVA (B3Z response) vs OVA alone: BMDCs; for antigen-presentation activity of cholic acid-NLS peptide conjugates (B3Z response): OVA admixed, best conjugate: antigen ratio; for antigen cross-presentation of OVA (B3Z response) vs OVA alone: OVA mixed with bile acid/peptide/conjugate, molar ratio 4:1
Description: Mouse bone marrow derived DCs (BMDCs) were generated by flushing the whole marrow from mouse femurs using RPMI™ 1640 supplemented with 10% fetal bovine serum (FBS), 50 U/mL Penicillin-Streptomycin, 2 mM L-glutamine, 10 mM HEPES, 1% MEM Non-essential Amino Acids, 1 mM Sodium Pyruvate, 0.5 mM beta-mercaptoethanol. Following red blood cell lysis, cells were then cultured in media supplemented with 50 ng/mL murine recombinant GM-CSF. The media was changed on days 2, 4, 6 and 8. On day 9, the media was replaced to include recombinant murine GM-CSF and LPS from Escherichia coli 0111 (1 ng/mL) to stimulate DC maturation. Mature DCs were assessed by flow cytometry for their surface expression of CD3, CD19, NK1.1, CD11c, CD80, CD86, and I-A^b.
(§1) Various bile acid-NLS conjugates were screened using the B3Z reporter system. The B3Z cell line is a T-cell hybridoma specific for the H2-K^b-[…] complex. Once activated via its TCR, the LacZ reporter gene (under the NFAT promoter control) is expressed. Briefly, 1.5×10^5 BMDCs or 2.5×10^5 MSCs were co-cultured with 5×10^4 B3Z cells treated with the mixing conditions of ovalbumin (OVA) and bile acid-NLS conjugates for overnight at 37° C. with 5% CO2. The following day, all cells were washed twice with PBS (pH 7.4), and the cell pellets were lysed by adding 100 μL of a lysis buffer containing 0.15 mM chlorophenol red-beta-D-galactopyranoside (CPRG) substrate (Calbiochem, La Jolla, CA), 0.125% NP40 (EMD Sciences, La Jolla, CA), 9 mM MgCl2 (Aldrich, USA) and 100 mM 2-mercaptoethanol in PBS. After a 5- or 24-h incubation at 37° C., absorbance was taken at 570 nm with 636 nm as the reference wavelength. For these experiments, OVA was re-suspended in PBS (pH 7.3) at 5-10 mg/mL. The different bile acid-NLS conjugates were re-suspended in H2O at 10 mg/mL. Bile acid-NLS conjugate: antigen mixtures were prepared at different molar ratios according to Table 1.
Variants of CA-SV40NLS were synthesized in order to explore structure-activity relationships relating to the antigen cross-presentation enhancing activity observed for this conjugate, and therefore a measure of antigen/cargo delivery. More particularly, conjugates having different bile acids conjugated to the SV40NLS peptide (SEQ ID NO: 1) were synthesized and their effect on antigen presentation was evaluated by using the B3Z reporter system with the OVA antigen as described in Example 1. […] In FIG. 11, no increase in antigen cross-presentation in BMDCs over the antigen alone (“OVA”) was observed when OVA was mixed with either unconjugated cholic acid (“CA”) or SV40NLS peptide (“SV40NLS”), although lower sensitivity of the B3Z reporter system as compared to the OT-I CD8 T cell-based assay may have been a factor.
(§2) Further variants of CA-SV40NLS were synthesized in which the SV40NLS peptide was replaced with peptides comprising other NLS's (Table 5) and the antigen presentation activities of the CA-NLS peptide conjugates were evaluated using the B3Z reporter system as described in Example 1. The following conjugate: antigen molar ratios were tested for each conjugate: 2:1, 4:1, 8:1, 12:1 and 22:1. The results in FIGS. 12-15 compare the antigen presentation activities of different conjugates at the conjugate: antigen ratio that yielded the highest B3Z response (OD570) for that conjugate.

WT MSCs = test: Antigen cross-presentation assay on wild-type MSCs with B3Z cells; format: cell-based, mouse; details: WT MSCs treated with CA-hnRNPA1 and OVA
Description: In order to generate Bone marrow (BM)-derived mouse MSCs, the femurs of 6-8-week-old female Balb/c or C57BL/6 mice were isolated and flushed with Alpha Modification of Eagle's Medium (AMEM) supplemented with 10% FBS and 50 U/mL Penicillin-Streptomycin in a 10 cm cell culture dish, then incubated at 37° C. Two days later, non-adherent cells were removed and the media replaced every 3 to 4 days until plastic-adherent cells reached 80% confluency. The generated cells were detached using 0.05% trypsin and expanded until a uniform MSC population was obtained. The generated MSCs were validated for their innate phenotype by flow-cytometry for the expression of CD44, CD45, CD73, and CD90. The cells were frozen in liquid nitrogen until use.
To assess cross-presentation assay, 25×10^3 cells MSCs were seeded per well in 24-well plate then pulsed with steroid acid peptide-conjugated for 6 h admixed with OVA. At the end of the pulsing period, the cells were washed to remove excess antigen then 5×10^4 B3Z cells. The cells were incubated for 17-19 hours prior to their lysis and incubation for another 4-6 hours at 37° C. with a CPRG solution. The optical density signal was detected at wavelength 570 using a SynergyH1™ microplate reader (Biotek, Winooski, VT, United States).
To determine whether a similar effect occurs in wild type (WT) (i.e., non-engineered) MSCs, BM-derived MSCs (Example 1) were used instead in the same cross presentation assay with B3Z responder cells.

[1] = tested on: cross-presenting mesenchymal stromal cell line (cpMSC); test: Antigen-presentation assay using the B3Z reporter system, cross-presenting MSC line; format: cell-based; details: cpMSCs, OVA admixed, vs OVA alone or OVA mixed with CA-SV40NLS
Description: as §1, §2

cpMSCs [2] = test: OVA-AF647 internalization in cpMSCs, flow cytometry; format: cell-based; details: various molar ratios
Description: For this experiment, a cross-presenting mesenchymal stromal cell line (cpMSC) was used as the antigen presenting cells, which were pulsed with the OVA cargo labelled with Alexa Fluor 647 (i.e., OVA^647)^TM. OVA^647 fluorescence was measured by flow cytometry. Different ratios of CA (NLS1 RPS17 [FIG. 16A]; NLS3 RPS17 [FIG. 16B]; and PQBP-1 [FIG. 16C] to antigen (CA: OVA=22:1, 12:1, 8:1, 4:1, and 2:1) were tested (hnRNPA1 M9 NLS at 2:1).
(§3) To further dissect the effect of bile acid peptide conjugates on antigen presentation, antigen internalization and processing were evaluated. cpMSCs were pulsed with OVA-labelled with AF647 in the presence of various molar ratios of different bile acid peptide conjugates, NLS1-RPS17 [FIG. 16A]; NLS3 RPS17 [FIG. 16B]; PQBP-1 [FIG. 16C]; and hnRNPA1 M9 NLS [FIG. 6]) and fluorescence was assessed by flow cytometry. […] OVA processing was assessed by pulsing cpMSCs with DQ™-Ovalbumin (OVA-DQ) in the presence of the same bile acid peptide conjugates as in FIGS. 6 and 16.

cpMSCs [3] = test: OVA-DQ processing in cpMSCs, flow cytometry; format: cell-based; details: various molar ratios
Description: For this experiment, a cross-presenting mesenchymal stromal cell line (cpMSC) was used as the antigen presenting cells, which were pulsed with DQ™ Ovalbumin (i.e., OVADQ). OVADQ fluorescence was measured by flow cytometry. Different ratios of CA (NLS1 RSP17 [FIG. 17A]; NLS3 RPS17 [FIG. 17B]; and PQBP-1 [FIG. 17C] to antigen (CA: OVA=22:1, 12:1, 8:1, 4:1, and 2:1) were tested (hnRNPA1 M9 NLS at 2:1).
as §3

For “NLS2-RG Domain RPS17: cholic acid conjugated to NLS2-RG Domain RPS17 peptide (SEQ ID NO: 8) (CNKRVCEEIAIIPSKKLRNKGSGRIQRGPVRGIS; cysteine pairing not given here; also: cholic acid conjugate, site not given here)”, the “antigen-presentation activity of cholic acid-NLS peptide conjugates (B3Z response)” value (from here on “antigen-presentation activity”) (BMDCs) was “high antigen presentation activity”.

`CC(=O)c1ccc2c(c1)Nc1ccccc1S2` [ML171] was tested, and the “effect of inhibitor on the antigen cross-presentation capacity of CA-hnRNPA1” value (“effect of inhibitor” below) (WT MSCs) was “neutralization”.

`c1ccc2c(c1)[I+]c1ccccc1-2` [DPI, diphenyleneiodonium chloride] was tested, and the “effect of inhibitor” value (WT MSCs) was “neutralization”.

In the case of `CC(=O)N[C@@H](CS)C(=O)O` [N-acetylcysteine], the “effect of inhibitor” value (WT MSCs) is reported as “neutralization”.

In the case of `C[C@H](CCC(=O)O)[C@H]1CC[C@H]2[C@@H]3[C@H](O)C[C@@H]4C[C@H](O)CC[C@]4(C)[C@H]3C[C@H](O)[C@]12C` [CA, cholic acid, reference compound], the “antigen cross-presentation of OVA (B3Z response) vs OVA alone” value (“antigen cross-presentation … vs OVA alone” for short) (BMDCs) is reported as “no increase”.

“cMyc NLS: cholic acid conjugated to cMyc NLS peptide CGYGPAAKRVKLDGG (SEQ ID NO: 12) (not fully specified (N-terminus); also: cholic acid conjugate, site not given here)” was tested, and the “antigen-presentation activity” value (BMDCs) was “high antigen presentation activity”.

For “UDCA: ursodeoxycholic acid conjugated to the SV40NLS peptide (SEQ ID NO: 1) (CGYGPKKKRKVGG; not fully specified (N-terminus); also: ursodeoxycholic acid conjugate, site not given here)”, the “antigen cross-presentation … vs OVA alone” value (BMDCs) was “comparable or higher”.

“GCDCA: glycochenodeoxycholic acid conjugated to the SV40NLS peptide (SEQ ID NO: 1) ({Glycochenodeoxycholic acid}-CGYGPKKKRKVGG; also: glycochenodeoxycholic acid conjugate, MOD_RES 1 Cholic Acid (ChAc))” was tested, and the “antigen cross-presentation … vs OVA alone” value (BMDCs) was “comparable or higher”.

For “SV40NLS: unconjugated NLS peptide CGYGPKKKRKVGG (SEQ ID NO: 1) (not fully specified) [reference compound]”, the “antigen cross-presentation … vs OVA alone” value (BMDCs) was “no increase”.

In the case of `C[C@H](CCC(=O)NCC(=O)O)[C@H]1CC[C@H]2[C@@H]3[C@@H](O)C[C@@H]4C[C@H](O)CC[C@]4(C)[C@H]3CC[C@]12C` [GUDCA, glycoursodeoxycholic acid, reference compound], the “immunogen enhancer activity across GUDCA: OVA molar ratios” value (BMDCs; 2:1, 4:1, 8:1, 12:1 and 22:1) is reported as “observed at all GUDCA: OVA molar ratios tested” and the “increase in B3Z response (OD570) over OVA alone” value (BMDCs; OVA mixed with unconjugated GUDCA, 22:1, data not shown) is reported as at most 30%.

With `CC1(C)CC(NC(=O)C[P+](c2ccccc2)(c2ccccc2)c2ccccc2)CC(C)(C)N1[O]` [MitoTempo™] the “effect of inhibitor” value (WT MSCs) was “did not neutralize”.

With `Cc1c(C)c2c(c(C)c1O)CC[C@@](C)(CCC[C@H](C)CCC[C@H](C)CCCC(C)C)O2` [α-tocopherol] the “effect of inhibitor” value (WT MSCs) was “neutralization”.

For “PQBP-1 NLS: cholic acid conjugated to PQBP-1 NLS peptide CADREEGKERRHHRREELAPY (SEQ ID NO: 7) (not fully specified (N-terminus); also: cholic acid conjugate, site not given here)”, the “antigen-presentation activity” value (BMDCs) was “strikingly high antigen-presentation activity”, the “antigen-presentation activity” value [1] was “strikingly high antigen-presentation activity” and the “OVA internalization (OVA-AF647 fluorescence)” value (cpMSCs [2]) was “enhance OVA internalization”. For the same compound, the “OVA processing (OVA-DQ fluorescence)” value (cpMSCs [3]) was “enhance OVA processing”.

For “NLS3-RPS17: cholic acid conjugated to NLS3 RPS17 peptide SKKLRNKIAGYVTHLMKRI (SEQ ID NO: 11)”, the “antigen-presentation activity” value (BMDCs) was “high antigen presentation activity”, the “OVA internalization (OVA-AF647 fluorescence)” value (cpMSCs [2]) was “enhance OVA internalization” and the “OVA processing (OVA-DQ fluorescence)” value (cpMSCs [3]) was “enhance OVA processing”.

With “GWG-SV40NLS: cholic acid conjugated to peptide CGWWGYGPKKKRKVGGWWG (SEQ ID NO: 3) (not fully specified (N-terminus); also: cholic acid conjugate, site not given here)” the “antigen-presentation activity” value (BMDCs) was “higher antigen-presentation activity than SV40NLS” and the “antigen-presentation activity” value [1] was “strikingly high antigen-presentation activity”.

— patent US20250049914A1, “STEROID ACID-PEPTIDE BASED INTRACELLULAR CARGO DELIVERY” (DEFENCE THERAPEUTICS INC., priority 2021, published 2025)
